Common to all, as to format: in vivo
In data set [1] the test system is cotton aphids (Aphis gossypii). Put plainly: Test method 2: diluted solution irrigated into plant foot of cucumber seedlings, cotton aphids released after 7 days. To be noted: 1000 ppm, irrigation into plant foot 5 mL/seedling, counted after additional 6 days, 25° C. Here is the method:
(§1) Next, Test Examples are used to show effects of the Present compounds on harmful arthropods. In the following Test Examples, the tests were carried out at 25° C.
Each test compound is formulated according to the method described in the Formulation Example 5 to obtain each formulation, and water is added thereto to prepare a diluted solution containing a prescribed concentration of each test compound.
Cucumber seedlings (on the developmental stage of the second true leaf) are planted in a container, and each of said diluted solutions is irrigated into the plant foot in a ratio of 5 mL/seedlings. After 7 days, approximately 30 cotton aphids (Aphis gossypii) (all stages of life) are released onto the surfaces of leaves of the cucumber seedlings. After additional 6 days, the number of the surviving insects is examined and the controlling value is calculated by the following equation. Controlling value (%)={1−(Cb×Tai)/(Cai×Tb)}×100 wherein the symbols in the equation represent the following meanings.
(§2) Cb: Number of the test insects in non-treated area;
Cai: Number of the surviving insects at the time of the investigation in non-treated area;
Tb: Number of the test insects in treated area;
(§3) Tai: Number of the surviving insects at the time of the investigation in treated area; […]

The subject of data set [2] is cotton aphids (Aphis gossypii). The data set is described as follows: Test method 1: diluted solution sprayed on cucumber seedlings infested with cotton aphids. As to conditions: 500 ppm, spray 10 mL/seedling on cucumber, 5 days after spraying, 25° C. Here is the method: as §1
(§4) Each test compound is formulated according to the method described in the Formulation Example 5 to obtain each formulation, and water containing Sindaine (registered trademark) (0.03% by volume) is added thereto to prepare a diluted solution containing a prescribed concentration of each test compound.
Cucumber (Cucumis sativus) seedlings (on the developmental stage of the second true leaf) are planted in a container and approximately 30 cotton aphids (Aphis gossypii) (all stages of life) are released onto the cucumber seedlings. After 1 day, each of said diluted solutions is sprayed into the seedlings in a ratio of 10 mL/seedling. After additional 5 days, the number of the surviving insects is examined and the controlling value is calculated by the following equation. Controlling value (%)={1−(Cb×Tai)/(Cai×Tb)}×100 wherein the symbols in the equation represent the following meanings.
as §2
Cai: Number of the surviving insects at the time of the investigation in non-treated area; Tb: Number of the test insects in treated area;
as §3

Data set [3] deals with cotton worm (Spodoptera litura). Put plainly: Test method 3: sprayed cabbage seedlings, 3rd instar larvae of cotton worm. To be noted: 500 ppm, spray 20 mL/seedling on cabbage, after 5 days, 25° C. As for the experimental part:
as §1, §4
(§5) Cabbage (Brassicae oleracea) seedlings (on the developmental stage of the second to third true leaf) are planted in a container, and each of said diluted solutions is sprayed into the seedlings in a ratio of 20 mL/seedlings. Thereafter, the stem and leaf of the seedlings are cut out, and placed into a container lined with a filter paper. Five (5) the 3rd instar larvae of cotton worm (Spodoptera litura) are released into the container. After 5 days, the number of the surviving insects is counted, and the mortality of insects is calculated by the following equation. Mortality (%)=(1−Number of surviving insects/5)×100

The subject of data set [4] is diamondback moth (Plutella xylostella). Put plainly: Test method 4: sprayed cabbage seedlings, 3rd instar larvae of diamondback moth. As to conditions: 500 ppm, spray 20 mL/seedling on cabbage, after 5 days, 25° C. As for the experimental part:
as §1, §4
as §5, with “Cabbage” for “Cabbage (Brassicae oleracea)”, “diamondback moth (Plutella xylostella)” for “cotton worm (Spodoptera litura)”

The subject of data set [5] is western corn rootworm (Diabrotica virgifera virgifera). The data set is described as follows: Test method 5: corn seedlings immersed in diluted solution, 2nd instar larvae of western corn rootworm. As to conditions: 500 ppm, corn seedlings immersed 30 seconds, after 5 days, 25° C. As for the experimental part: as §1
Each test compound is dissolved into a mixed solution (50 μL) of polyoxyethylene sorbitan mono-cocoate and acetone (at a volume ratio of polyoxyethylene sorbitan mono-cocoate:acetone=5:95) per 1 mg of the test compound. Water containing Sindaine (registered trademark) (0.03% by volume) is added thereto to prepare a diluted solution containing a prescribed concentration of each test compound.
Young seedlings of corns (Zea mays) are immersed into each of said diluted solutions for 30 seconds. Thereafter, two of said seedlings are placed into a petri dish (diameter: 90 mm), and 10 the 2nd instar larvae of western corn rootworm (Diabrotica virgifera virgifera) are released into the dish. After 5 days, the number of the dead insects is counted, and the mortality of insects is calculated by the following equation. Mortality (%)=(Number of dead insects/10)×100

Data on one molecule can be found in patent US12144350B2, “Heterocyclic compound and harmful arthropod control composition containing same” (SUMITOMO CHEMICAL COMPANY, LIMITED, priority 2019, dated 2024).

Some results are limits rather than exact numbers.

A word on the mortality: it is the percentage killed. Read a low mortality as more survivors.

Turning to `CCS(=O)(=O)c1c(-n2ccn3nc(C(F)(F)F)cc3c2=O)nc2ccc(C(F)(F)F)cn12` [compound 2], the controlling value in data set [1] and in data set [2] was at least 90% in each case. For the same molecule, the mortality in data set [3], in data set [4] and in data set [5] was at least 80% each time.
